Experiments:
Assay in all cases: radiometric filter-binding kinase assay
[1] = target: PIM3 (human) (UniProt Q86V86)
[2] = target: DYRK3 (human) (UniProt O43781)
[3] = target: PHKG1 (human) (UniProt Q16816)
[4] = target: CSNK2A1 (human) (UniProt P68400)
[5] = test system: SGK1 (human), O00141 [S422D]
[6] = target: TBK1 (human) (UniProt Q9UHD2)
[7] = target: HIPK1 (human) (UniProt Q86Z02)
[8] = target: HIPK2 (human) (UniProt Q9H2X6)
[9] = target: MAPKAPK5 (human) (UniProt Q8IW41)
[10] = target: TAOK1 (human) (UniProt Q7L7X3)
[11] = target: EPHB2 (human) (UniProt P29323)
[12] = target: MAPK8 (human) (UniProt P45983)
[13] = target: CHEK1 (human) (UniProt O14757)
[14] = target: MARK3 (human) (UniProt P27448)
[15] = target: DAPK1 (human) (UniProt P53355)
Chain of DAPK1 (human) (P53355 whole entry, looked up): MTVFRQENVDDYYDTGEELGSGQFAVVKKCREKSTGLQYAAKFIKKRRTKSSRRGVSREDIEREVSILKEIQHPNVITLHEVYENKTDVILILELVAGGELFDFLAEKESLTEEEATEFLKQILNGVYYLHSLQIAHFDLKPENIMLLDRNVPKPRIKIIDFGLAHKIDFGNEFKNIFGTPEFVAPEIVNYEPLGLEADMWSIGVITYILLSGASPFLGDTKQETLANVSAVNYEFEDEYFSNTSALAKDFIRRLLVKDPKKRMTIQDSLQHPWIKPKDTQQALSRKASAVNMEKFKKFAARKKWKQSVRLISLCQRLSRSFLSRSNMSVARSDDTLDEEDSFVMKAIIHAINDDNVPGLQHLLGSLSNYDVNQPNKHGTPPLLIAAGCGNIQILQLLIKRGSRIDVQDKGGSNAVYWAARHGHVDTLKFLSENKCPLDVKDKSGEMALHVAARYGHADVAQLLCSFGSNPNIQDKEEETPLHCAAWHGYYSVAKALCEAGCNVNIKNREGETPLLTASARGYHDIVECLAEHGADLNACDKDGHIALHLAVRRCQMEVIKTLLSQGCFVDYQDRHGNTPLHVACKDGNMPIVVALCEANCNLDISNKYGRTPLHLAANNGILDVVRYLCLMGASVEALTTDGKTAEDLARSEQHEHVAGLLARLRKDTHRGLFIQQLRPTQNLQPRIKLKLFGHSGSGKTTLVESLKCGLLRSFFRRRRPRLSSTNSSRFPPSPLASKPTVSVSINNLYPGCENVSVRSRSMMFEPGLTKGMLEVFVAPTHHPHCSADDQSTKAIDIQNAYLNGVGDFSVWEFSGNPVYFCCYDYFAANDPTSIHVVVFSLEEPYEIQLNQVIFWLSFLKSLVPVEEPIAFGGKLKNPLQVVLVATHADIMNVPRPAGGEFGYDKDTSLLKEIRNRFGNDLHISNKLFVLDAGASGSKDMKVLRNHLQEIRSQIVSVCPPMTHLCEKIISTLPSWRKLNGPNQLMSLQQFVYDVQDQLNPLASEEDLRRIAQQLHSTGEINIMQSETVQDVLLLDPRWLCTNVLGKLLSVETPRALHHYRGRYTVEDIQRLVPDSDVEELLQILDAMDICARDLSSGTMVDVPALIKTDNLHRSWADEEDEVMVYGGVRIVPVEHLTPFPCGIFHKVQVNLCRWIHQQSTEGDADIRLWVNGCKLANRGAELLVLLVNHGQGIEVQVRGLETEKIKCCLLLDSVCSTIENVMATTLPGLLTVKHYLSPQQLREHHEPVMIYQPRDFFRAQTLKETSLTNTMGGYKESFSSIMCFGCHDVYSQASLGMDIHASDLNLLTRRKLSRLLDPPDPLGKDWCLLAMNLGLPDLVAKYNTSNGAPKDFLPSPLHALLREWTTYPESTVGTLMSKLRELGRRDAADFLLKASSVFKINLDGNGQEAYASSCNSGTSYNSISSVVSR

[16] = target: BRSK2 (human) (UniProt Q8IWQ3)
[17] = target: AURKB (human) (UniProt Q96GD4)
[18] = target: STK3 (human) (UniProt Q13188)
[19] = target: IGF1R (human) (UniProt P08069)
[20] = target: SRPK1 (human) (UniProt Q96SB4)
[21] = test system: LCK (mouse); conditions: accession and sequence are those of the human protein
[22] = target: FGFR1 (human) (UniProt P11362)
Chain of FGFR1 (human) (P11362 whole entry, looked up): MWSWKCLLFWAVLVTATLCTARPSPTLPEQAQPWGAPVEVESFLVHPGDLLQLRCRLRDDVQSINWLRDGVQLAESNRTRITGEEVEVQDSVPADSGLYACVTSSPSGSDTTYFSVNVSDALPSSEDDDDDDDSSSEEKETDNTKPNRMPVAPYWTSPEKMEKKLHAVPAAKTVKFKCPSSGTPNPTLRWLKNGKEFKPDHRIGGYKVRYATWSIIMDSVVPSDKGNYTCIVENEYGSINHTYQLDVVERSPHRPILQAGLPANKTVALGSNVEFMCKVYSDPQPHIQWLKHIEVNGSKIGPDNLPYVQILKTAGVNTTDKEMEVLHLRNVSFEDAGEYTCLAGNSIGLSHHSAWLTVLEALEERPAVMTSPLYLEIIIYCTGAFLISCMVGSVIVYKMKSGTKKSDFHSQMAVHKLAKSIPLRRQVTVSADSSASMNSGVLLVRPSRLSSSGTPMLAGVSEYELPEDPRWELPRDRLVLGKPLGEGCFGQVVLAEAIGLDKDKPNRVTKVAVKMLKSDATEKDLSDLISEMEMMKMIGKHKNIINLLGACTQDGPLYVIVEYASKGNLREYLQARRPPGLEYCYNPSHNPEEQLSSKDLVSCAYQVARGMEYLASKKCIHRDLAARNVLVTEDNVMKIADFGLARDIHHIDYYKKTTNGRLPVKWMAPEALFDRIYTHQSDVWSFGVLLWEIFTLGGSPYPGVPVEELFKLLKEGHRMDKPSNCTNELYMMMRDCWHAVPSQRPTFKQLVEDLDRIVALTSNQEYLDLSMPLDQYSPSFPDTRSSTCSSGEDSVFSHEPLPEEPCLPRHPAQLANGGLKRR

[23] = target: MKNK1 (human) (UniProt Q9BUB5)
[24] = target: YES1 (human) (UniProt P07947)
Chain of YES1 (human) (P07947 whole entry, looked up): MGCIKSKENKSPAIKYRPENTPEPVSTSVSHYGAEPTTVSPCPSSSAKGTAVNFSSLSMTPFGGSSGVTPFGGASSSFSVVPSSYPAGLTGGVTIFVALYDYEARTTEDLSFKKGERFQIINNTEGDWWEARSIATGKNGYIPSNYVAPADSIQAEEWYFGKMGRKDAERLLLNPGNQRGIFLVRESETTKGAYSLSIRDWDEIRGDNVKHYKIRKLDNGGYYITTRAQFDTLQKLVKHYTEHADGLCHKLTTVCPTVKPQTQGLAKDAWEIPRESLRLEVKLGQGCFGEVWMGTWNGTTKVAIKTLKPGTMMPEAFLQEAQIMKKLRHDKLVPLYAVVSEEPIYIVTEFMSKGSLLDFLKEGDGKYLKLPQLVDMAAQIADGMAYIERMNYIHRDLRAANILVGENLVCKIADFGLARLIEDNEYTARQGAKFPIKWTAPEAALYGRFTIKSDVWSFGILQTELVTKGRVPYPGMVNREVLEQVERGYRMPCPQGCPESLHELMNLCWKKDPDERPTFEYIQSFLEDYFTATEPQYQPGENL

[25] = target: CAMKK2 (human) (UniProt Q96RR4)
[26] = target: DYRK1A (human) (UniProt Q13627)
[27] = test system: ROCK2 (rat); conditions: accession and sequence are those of the human protein
[28] = target: CaMK1 (human) (UniProt Q14012)
Chain of CaMK1 (human) (Q14012 whole entry, looked up): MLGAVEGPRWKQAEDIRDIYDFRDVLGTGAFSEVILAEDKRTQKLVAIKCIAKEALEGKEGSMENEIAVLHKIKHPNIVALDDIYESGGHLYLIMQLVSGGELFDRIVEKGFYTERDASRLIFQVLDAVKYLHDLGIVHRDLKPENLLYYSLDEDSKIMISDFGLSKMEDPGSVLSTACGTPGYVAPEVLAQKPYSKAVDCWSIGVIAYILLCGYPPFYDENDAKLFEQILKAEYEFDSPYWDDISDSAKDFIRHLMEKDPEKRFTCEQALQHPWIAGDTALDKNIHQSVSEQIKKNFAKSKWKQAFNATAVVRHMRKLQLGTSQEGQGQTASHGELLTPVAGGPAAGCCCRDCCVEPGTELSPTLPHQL

[29] = target: MAPK13 (human) (UniProt O15264)
[30] = target: MAPK10 (human) (UniProt P53779)
[31] = target: JAK2 JH1 JH2 (human) (UniProt O60674)
[32] = target: GCK (human) (UniProt Q12851)
Chain of GCK (human) (Q12851 whole entry, looked up): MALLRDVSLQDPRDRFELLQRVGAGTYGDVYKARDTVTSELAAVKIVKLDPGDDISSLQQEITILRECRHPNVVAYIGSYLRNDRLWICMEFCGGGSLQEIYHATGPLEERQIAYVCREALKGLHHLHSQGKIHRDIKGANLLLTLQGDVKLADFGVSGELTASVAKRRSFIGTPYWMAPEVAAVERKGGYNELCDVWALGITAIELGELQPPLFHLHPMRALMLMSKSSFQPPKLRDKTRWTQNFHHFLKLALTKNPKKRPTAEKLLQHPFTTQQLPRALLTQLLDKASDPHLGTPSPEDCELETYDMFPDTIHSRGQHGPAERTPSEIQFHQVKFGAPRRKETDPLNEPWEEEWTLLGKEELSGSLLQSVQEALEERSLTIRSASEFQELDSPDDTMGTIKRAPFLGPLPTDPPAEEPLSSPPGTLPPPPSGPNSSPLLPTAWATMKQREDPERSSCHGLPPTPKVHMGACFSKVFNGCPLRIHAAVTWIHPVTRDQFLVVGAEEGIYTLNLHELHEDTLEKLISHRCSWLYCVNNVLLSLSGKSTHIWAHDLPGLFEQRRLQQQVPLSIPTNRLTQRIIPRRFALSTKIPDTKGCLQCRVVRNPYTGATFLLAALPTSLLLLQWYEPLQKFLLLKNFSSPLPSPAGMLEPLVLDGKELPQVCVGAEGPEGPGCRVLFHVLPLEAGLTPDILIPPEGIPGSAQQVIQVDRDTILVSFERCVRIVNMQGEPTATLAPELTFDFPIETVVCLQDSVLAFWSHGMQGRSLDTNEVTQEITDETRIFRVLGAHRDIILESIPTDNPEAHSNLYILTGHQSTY

[33] = target: CLK2 (human) (UniProt P49760)
Chain of CLK2 (human) (P49760 whole entry, looked up): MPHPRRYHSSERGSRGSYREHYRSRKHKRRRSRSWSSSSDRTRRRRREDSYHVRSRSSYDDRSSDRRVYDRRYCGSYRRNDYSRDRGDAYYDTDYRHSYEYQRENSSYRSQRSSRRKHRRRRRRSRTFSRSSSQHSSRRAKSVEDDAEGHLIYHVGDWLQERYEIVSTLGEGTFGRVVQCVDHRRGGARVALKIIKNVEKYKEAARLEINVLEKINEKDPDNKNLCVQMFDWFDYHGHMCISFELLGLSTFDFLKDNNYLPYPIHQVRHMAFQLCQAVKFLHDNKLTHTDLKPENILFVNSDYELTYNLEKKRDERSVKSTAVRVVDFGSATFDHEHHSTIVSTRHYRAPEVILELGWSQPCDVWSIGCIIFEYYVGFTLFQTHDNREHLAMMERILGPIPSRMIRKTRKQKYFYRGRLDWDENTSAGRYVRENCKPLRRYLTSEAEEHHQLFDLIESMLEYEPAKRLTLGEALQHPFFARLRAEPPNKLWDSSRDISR

[34] = target: MAPK11 (human) (UniProt Q15759)
[35] = target: MINK1 (human) (UniProt Q8N4C8)
[36] = test system: PAK2 (human), Q13177 [T402E]

Chain of DYRK3 (human) (O43781 whole entry, looked up): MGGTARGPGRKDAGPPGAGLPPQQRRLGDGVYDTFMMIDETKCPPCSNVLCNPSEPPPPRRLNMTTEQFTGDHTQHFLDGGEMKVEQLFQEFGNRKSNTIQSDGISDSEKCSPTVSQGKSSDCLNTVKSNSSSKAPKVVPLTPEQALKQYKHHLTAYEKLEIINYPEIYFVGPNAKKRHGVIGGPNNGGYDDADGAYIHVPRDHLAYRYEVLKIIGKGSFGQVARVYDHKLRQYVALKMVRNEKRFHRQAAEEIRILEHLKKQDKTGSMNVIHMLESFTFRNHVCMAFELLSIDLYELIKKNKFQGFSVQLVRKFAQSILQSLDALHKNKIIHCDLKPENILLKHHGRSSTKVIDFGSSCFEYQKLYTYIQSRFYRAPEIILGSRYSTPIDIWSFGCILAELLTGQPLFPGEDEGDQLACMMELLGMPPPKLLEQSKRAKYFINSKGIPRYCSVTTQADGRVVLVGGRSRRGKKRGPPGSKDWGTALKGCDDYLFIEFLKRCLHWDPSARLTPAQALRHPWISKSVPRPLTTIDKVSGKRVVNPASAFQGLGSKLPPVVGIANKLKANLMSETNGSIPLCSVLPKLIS

A residual activity ([1]; compound 0.01 µM) of 17%, a residual activity ([1]; compound 0.1 µM) of 10% and a residual activity ([1]; compound 1.0 µM) of 10% were found for `CNC(=O)C1[C@H]2O[C@@](C)([C@@H]1N)n1c3ccccc3c3c4c(c5c6ccccc6n2c5c31)C(=O)NC4` (stereo partly specified) in this work. The residual activity ([2]; compound 0.01 µM) was 24%, the residual activity ([2]; compound 0.1 µM) was 4% and the residual activity ([2]; compound 1.0 µM) was 2%. It also gave a residual activity ([3]; compound 0.1 µM) of 1%, a residual activity ([3]; compound 1.0 µM) of 1% and a residual activity ([4]; compound 0.01 µM) of 106%. The residual activity ([4]; compound 0.1 µM) was 108%, the residual activity ([4]; compound 1.0 µM) was 80% and the residual activity ([5]; compound 0.01 µM) was 79%. For the same molecule, the residual activity ([5]; compound 0.1 µM) was 32%, the residual activity ([5]; compound 1.0 µM) was 10% and the residual activity ([6]; compound 0.01 µM) was 22%. For the same molecule, the residual activity ([6]; compound 0.1 µM) was 16%, the residual activity ([6]; compound 1.0 µM) was 12% and the residual activity ([7]; compound 0.01 µM) was 98%. The residual activity ([7]; compound 0.1 µM) was 82%, the residual activity ([7]; compound 1.0 µM) was 22% and the residual activity ([8]; compound 0.01 µM) was 85%. It also gave a residual activity ([8]; compound 0.1 µM) of 30%, a residual activity ([8]; compound 1.0 µM) of 6% and a residual activity ([9]; compound 0.01 µM) of 81%. It also gave a residual activity ([9]; compound 0.1 µM) of 15%, a residual activity ([9]; compound 1.0 µM) of 2% and a residual activity ([10]; compound 0.01 µM) of 53%. For the same molecule, the residual activity ([10]; compound 0.1 µM) was 15%, the residual activity ([10]; compound 1.0 µM) was 7% and the residual activity ([11]; compound 0.01 µM) was 108%. For the same molecule, the residual activity ([11]; compound 0.1 µM) was 89%, the residual activity ([11]; compound 1.0 µM) was 34% and the residual activity ([12]; compound 0.01 µM) was 91%. The residual activity ([12]; compound 0.1 µM) was 4%, the residual activity ([12]; compound 1.0 µM) was 1% and the residual activity ([13]; compound 0.01 µM) was 11%. For the same molecule, the residual activity ([13]; compound 0.1 µM) was 4%, the residual activity ([13]; compound 1.0 µM) was 3% and the residual activity ([14]; compound 0.01 µM) was 7%. It also gave a residual activity ([14]; compound 0.1 µM) of 3%, a residual activity ([14]; compound 1.0 µM) of 2% and a residual activity ([15]; compound 0.01 µM) of 51%. It also gave a residual activity ([15]; compound 0.1 µM) of 18%, a residual activity ([15]; compound 1.0 µM) of 4% and a residual activity ([16]; compound 0.01 µM) of 16%. For the same molecule, the residual activity ([16]; compound 0.1 µM) was 10%, the residual activity ([16]; compound 1.0 µM) was 8% and the residual activity ([17]; compound 0.01 µM) was 49%. The residual activity ([17]; compound 0.1 µM) was 46%, the residual activity ([17]; compound 1.0 µM) was 39% and the residual activity ([18]; compound 0.01 µM) was 18%. The residual activity ([18]; compound 0.1 µM) was 16%, the residual activity ([18]; compound 1.0 µM) was 9% and the residual activity ([19]; compound 0.01 µM) was 87%. It also gave a residual activity ([19]; compound 0.1 µM) of 64%, a residual activity ([19]; compound 1.0 µM) of 3% and a residual activity ([20]; compound 0.01 µM) of 89%. It also gave a residual activity ([20]; compound 0.1 µM) of 53%, a residual activity ([20]; compound 1.0 µM) of 11% and a residual activity ([21]; compound 0.01 µM) of 44%. The residual activity ([21]; compound 0.1 µM) was 13%, the residual activity ([21]; compound 1.0 µM) was 3% and the residual activity ([22]; compound 0.01 µM) was 53%. The residual activity ([22]; compound 0.1 µM) was 22%, the residual activity ([22]; compound 1.0 µM) was 3% and the residual activity ([23]; compound 0.01 µM) was 61%. For the same molecule, the residual activity ([23]; compound 0.1 µM) was 16%, the residual activity ([23]; compound 1.0 µM) was 9% and the residual activity ([24]; compound 0.01 µM) was 76%. It also gave a residual activity ([24]; compound 0.1 µM) of 20%, a residual activity ([24]; compound 1.0 µM) of 2% and a residual activity ([25]; compound 0.01 µM) of 64%. It also gave a residual activity ([25]; compound 0.1 µM) of 14%, a residual activity ([25]; compound 1.0 µM) of 11% and a residual activity ([26]; compound 0.01 µM) of 29%. The residual activity ([26]; compound 0.1 µM) was 8%, the residual activity ([26]; compound 1.0 µM) was 3% and the residual activity ([27]; compound 0.01 µM) was 82%. It also gave a residual activity ([27]; compound 1.0 µM) of 7%, a residual activity ([28]; compound 0.01 µM) of 97% and a residual activity ([28]; compound 0.1 µM) of 25%. It also gave a residual activity ([28]; compound 1.0 µM) of 4%, a residual activity ([29]; compound 0.01 µM) of 100% and a residual activity ([29]; compound 0.1 µM) of 97%. It also gave a residual activity ([29]; compound 1.0 µM) of 48%, a residual activity ([30]; compound 0.01 µM) of 65% and a residual activity ([30]; compound 0.1 µM) of 30%. The residual activity ([30]; compound 1.0 µM) was 26%, the residual activity ([31]; compound 0.01 µM) was 10% and the residual activity ([31]; compound 0.1 µM) was 12%. It also gave a residual activity ([31]; compound 1.0 µM) of 7%, a residual activity ([32]; compound 0.01 µM) of 6% and a residual activity ([32]; compound 0.1 µM) of 4%. The residual activity ([32]; compound 1.0 µM) was 2%, the residual activity ([33]; compound 0.01 µM) was 9% and the residual activity ([33]; compound 0.1 µM) was -1%. For the same molecule, the residual activity ([33]; compound 1.0 µM) was -1%, the residual activity ([34]; compound 0.01 µM) was 108% and the residual activity ([34]; compound 0.1 µM) was 96%. For the same molecule, the residual activity ([34]; compound 1.0 µM) was 79%, the residual activity ([35]; compound 0.01 µM) was 4% and the residual activity ([35]; compound 0.1 µM) was 3%. The residual activity ([35]; compound 1.0 µM) was 2%, the residual activity ([36]; compound 0.01 µM) was 71% and the residual activity ([36]; compound 0.1 µM) was 19%. For the same molecule, the residual activity ([36]; compound 1.0 µM) was 4%.
